Results as given in US12302928B2, “Application of acylated derivative of amino acid in preparation of animal feed additive” (ANIPHA TECHNOLOGIES PTY LTD, priority 2018, dated 2025).
Read-outs that look alike come from different tables or passages of the source.

Experiments:
Jingbai laying hens = test: Breeding test B2: effect on the production performance of laying hens; assay type: in vivo; details: 150 ppm in basal daily ration, 158 days; for EPR (egg production rate): 147-day-old laying hens
From the text: The test adopted a single-factor random design. 1,080 147-day-old Jingbai laying hens with similar body weight were selected and randomly divided into 9 groups, with 6 replications per group and 20 Jingbai laying hens per replication. The poultry houses and utensils were sterilized before the test. During the test period, the Jingbai laying hens were cage cultured in the same poultry house under the same feeding and management conditions. The basal daily ration was mainly corn-soybean meal, and no other antioxidant ingredients and growth promoters were added additionally during the entire feeding process. The test groups were the control group (group I) and the test groups II˜IX, respectively. The basal daily ration was only given for the control group, and 150 ppm of different acylated derivatives of the aminobutyric acid were added into the basal daily ration for the test groups II˜IX. The pre-feeding period was 10 days, and the test period was 158 days. The test laying hens were free to drink water and eat feed, and were fed twice a day. The test takes each repetition as a unit, and records the total egg number, the egg production, and the feed intake every day, and calculates the egg production rate (EPR), the average daily feed intake (ADFI, g/d), the egg weight (EW, g) and the feed-to-egg ratio (FER) of the laying hens during the entire test. The formula for calculation was as follows: Egg production rate (%)=average daily total egg number/number of laying hens×100; Egg weight (g)=average daily total egg weight/average daily total egg number; Feed-to-egg ratio=average daily feed intake/egg weight.

[1] = system: Duroc×Landrace×Yorkshire cross-bred bacon-type pigs; test: Breeding test B1: effect on the production performance of pigs; assay type: in vivo; details: 400 ppm in basal daily ration, 28 days; for ADFI (average daily feed intake) / ADG (average daily gain): 65-day-old pigs; for FCR (feed conversion ratio): ADFI/ADG
From the text: 270 65-day-old Duroc×Landrace×Yorkshire cross-bred bacon-type pigs with similar body weight were randomly divided into 9 groups, with 3 replications per group and 10 pigs (half of male and female) per replication. The pigpens and utensils were sterilized before the test. During the test period, the test pigs were free-stall housed in the same pigpen under the same feeding and management conditions. During the test period, the test pigs were free to drink water and eat feed, and test pigs were fed twice a day. The test groups were the control group (group I) and the test groups II˜IX, respectively. Wherein the basal daily ration was only given for the control group, and 400 ppm of different acylated derivative of the aminobutyric acid was added into the basal daily ration for the test groups II˜IX.
No other antioxidant ingredients and growth promoters were added for the test groups during the entire feeding process. The test period was 28 days, with each repetition as a unit, the test pigs were weighed at the age of 93 days without stopping water and feed for 12 hours; the average daily feed intake (ADFI, g/d*each pig), the average daily gain (ADG, g/d*each pig) and the feed conversion ratio (FCR) were calculated for each of the test groups. The formula for calculation was as follows: Average daily feed intake=(total amount of feed−remaining amount of feed)/(number of days of test×number of pigs per repetition); Average daily gain=(average body weight at the end of the test−average body weight at the beginning of the test)/number of days of test; Feed conversion ratio=average daily feed intake/average daily gain.

grass carps = test: Breeding test B4: use in fish feed (growth of grass carps); assay type: in vivo; details: for change in vivo at 150 ppm, 150 µg/mL: po, 1344 h, read-out: Weight gain rate
Procedure: The test fishes used were grass carps, and the test was carried out in the aquaculture farm of the test field of Guangzhou Insighter. Healthy, lively, and uniform grass carp fingerlings were fed in large cages for 4 weeks before being used for formal breeding test. The experimental system was a small floating cage. Both the small cage and the temporary cage were placed in a 3500 m^2 pond of the test field, the depth of the pond was about 1.5 m, and the water of the pond was fully aerated in the bottom of the pond. During the test, 360 grass carps that were hungry for 1 day were randomly divided into 9 groups, with 4 replications per group and 10 grass carps per replication. All of the grass carps were weighed, and then were randomly placed in 36 cages and fed with different test feeds. The test feeds were self-prepared, and 150 ppm of different acylated derivatives of the aminobutyric acid were added into the basal feed for different test groups, respectively. The test groups were the control group (group I) and the test groups IIIX, respectively. The basal daily ration was only given for the control group, and 150 ppm of different acylated derivatives of the aminobutyric acid were added into the basal daily ration for the test groups IIIX.
The test adopted time-limited artificial feeding, and the feeding amount was adjusted once a week. The feeding rate of the control group and the feeding rate of the test groups (according to the initial body weight) were exactly the same, and the grass carps were fed twice a day (7:30 and 15:00). The test period was 8 weeks.

[2] = system: yellow-feathered broilers; test: Breeding test B3: effect on the production performance of broilers; assay type: in vivo; details: 300 ppm in basal daily ration, 20 days; for ADFI (average daily feed intake): 1-day-old broilers; for FCR (feed conversion ratio): ADFI/ADG
From the text: The test adopted a single-factor random design. 1,080 1-day-old yellow-feathered broilers with similar body weight and the average weight of 50 g were selected and randomly divided into 9 groups, with 6 replications per group and 20 yellow-feathered broilers (half of male and female) per replication. The poultry houses and utensils were sterilized before the test. During the test period, the yellow-feathered broilers were housed in the same poultry house under the same feeding and management conditions. The basal daily ration was mainly corn-soybean meal, and no other antioxidant components and growth promoters were added additionally during the entire feeding process. The test groups were the control group (group I) and the test groups II˜IX, respectively. The basal daily ration was only given for the control group, and 300 ppm of different acylated derivatives of the aminobutyric acid were added into the basal daily ration for the test groups II˜IX.
The test period was 20 days. The test broilers were free to drink water and eat feed, and were fed twice a day. With each repetition as a unit, the test broilers were weighed at the age of 21 days (stopping feed for 12 hours, without stopping water), the feed consumption of test broilers were recorded, and the average daily feed intake (ADFI, g/d*each broiler), the average daily gain (ADG, g/d*each broiler) and feed conversion ratio (FCR) were calculated for each of the test groups. The formula for calculation was as follows: Feed conversion ratio (FCR)=average daily feed intake/average daily gain.

glutamate decarboxylase = details: cited from earlier work
[3] = system: nephrotoxicity caused by cephalosporin; details: rabbit; 150 mg/kg; cephalosporin at a dose of 150 mg/kg; cited from earlier work
[4] = system: convulsion caused by bicuculline or corazol; details: cited from earlier work
[5] = after subcutaneous injection; cited from earlier work

Structure (SMILES): O=C(O)CCCNC(=O)c1ccc(O)cc1 [N-p-hydroxybenzoyl-γ-aminobutyric acid]
- ADFI (average daily feed intake) (Jingbai laying hens): 161 g/day
- EW (egg weight) (Jingbai laying hens): 55.27 g
- EPR (egg production rate) (Jingbai laying hens): 81.8%
- ADFI (average daily feed intake) [1]: 1602 g/d * each pig
- ADG (average daily gain) [1]: 611 g/d * each pig
- FCR (feed conversion ratio) [1]: 2.620
- (FCR) (grass carps; 150 ppm in basal feed, 8 weeks): 1.82
- Average final weight (grass carps; 150 ppm in basal feed, 8 weeks): 710 g
- change in vivo at 150 ppm, 150 µg/mL (grass carps; 150 ppm in basal feed, 8 weeks): 81.5%
- ADG (average daily gain) [2]: 12.32 g/d * each broiler
- ADFI (average daily feed intake) [2]: 24.52 g/d * each broiler
- FCR (feed conversion ratio) [2]: 1.99

Structure (SMILES): NCC(=O)NCCCC(=O)O [N-glycyl-γ-aminobutyric acid]
- ADFI (average daily feed intake) (Jingbai laying hens): 161 g/day
- EW (egg weight) (Jingbai laying hens): 55.61 g
- EPR (egg production rate) (Jingbai laying hens): 82.9%
- ADFI (average daily feed intake) [1]: 1728 g/d * each pig
- ADG (average daily gain) [1]: 651 g/d * each pig
- FCR (feed conversion ratio) [1]: 2.655
- (FCR) (grass carps; 150 ppm in basal feed, 8 weeks): 1.75
- Average final weight (grass carps; 150 ppm in basal feed, 8 weeks): 755 g
- change in vivo at 150 ppm, 150 µg/mL (grass carps): 78.2%
- ADG (average daily gain) [2]: 13.02 g/d * each broiler
- ADFI (average daily feed intake) [2]: 26.17 g/d * each broiler
- FCR (feed conversion ratio) [2]: 2.01

Structure (SMILES): O=C(O)CCCNC(=O)c1ccccc1 [N-benzoyl-γ-aminobutyric acid]
- inhibition of glutamate decarboxylase (glutamate decarboxylase): can inhibit a glutamate decarboxylase
- protection of the kidney from cephalosporin nephrotoxicity [3]: can significantly protect the kidney
- antagonism of convulsion [4]: can antagonize the convulsion
- time to maximum blood concentration [5]: ≤ 5 min
- ADFI (average daily feed intake) (Jingbai laying hens): 158 g/day
- EW (egg weight) (Jingbai laying hens): 54.92 g
- EPR (egg production rate) (Jingbai laying hens): 86.7%
- ADFI (average daily feed intake) [1]: 1837 g/d * each pig
- ADG (average daily gain) [1]: 699 g/d * each pig
- FCR (feed conversion ratio) [1]: 2.628
- (FCR) (grass carps; 150 ppm in basal feed, 8 weeks): 1.79
- Average final weight (grass carps; 150 ppm in basal feed, 8 weeks): 721 g
- change in vivo at 150 ppm, 150 µg/mL (grass carps): 81.6%
- ADG (average daily gain) [2]: 14.13 g/d * each broiler
- ADFI (average daily feed intake) [2]: 27.56 g/d * each broiler
- FCR (feed conversion ratio) [2]: 1.95

Structure (SMILES): NCCCC(=O)NCCCC(=O)O [N-(γ-aminobutyryl)-γ-aminobutyric acid]
- ADFI (average daily feed intake) (Jingbai laying hens): 160 g/day
- EW (egg weight) (Jingbai laying hens): 55.24 g
- EPR (egg production rate) (Jingbai laying hens): 84.4%
- ADFI (average daily feed intake) [1]: 1831 g/d * each pig
- ADG (average daily gain) [1]: 693 g/d * each pig
- FCR (feed conversion ratio) [1]: 2.642
- (FCR) (grass carps; 150 ppm in basal feed, 8 weeks): 1.80
- Average final weight (grass carps; 150 ppm in basal feed, 8 weeks): 707 g
- change in vivo at 150 ppm, 150 µg/mL (grass carps; 150 ppm in basal feed, 8 weeks): 83.7%
- ADG (average daily gain) [2]: 14.62 g/d * each broiler
- ADFI (average daily feed intake) [2]: 28.94 g/d * each broiler
- FCR (feed conversion ratio) [2]: 1.98

Structure (SMILES): O=C(O)CCCNC(=O)c1ccc(Cl)cc1 [N-p-chlorobenzoyl-γ-aminobutyric acid]
- ADFI (average daily feed intake) (Jingbai laying hens): 160 g/day
- EW (egg weight) (Jingbai laying hens): 55.07 g
- EPR (egg production rate) (Jingbai laying hens): 81.4%
- ADFI (average daily feed intake) [1]: 1675 g/d * each pig
- ADG (average daily gain) [1]: 642 g/d * each pig
- FCR (feed conversion ratio) [1]: 2.610
- (FCR) (grass carps; 150 ppm in basal feed, 8 weeks): 1.77
- Average final weight (grass carps; 150 ppm in basal feed, 8 weeks): 730 g
- change in vivo at 150 ppm, 150 µg/mL (grass carps; 150 ppm in basal feed, 8 weeks): 81.5%
- ADG (average daily gain) [2]: 12.32 g/d * each broiler
- ADFI (average daily feed intake) [2]: 24.88 g/d * each broiler
- FCR (feed conversion ratio) [2]: 2.02

Structure (SMILES): CC(=O)NCCCC(=O)O [N-acetyl-γ-aminobutyric acid]
- ADFI (average daily feed intake) (Jingbai laying hens): 160 g/day
- EW (egg weight) (Jingbai laying hens): 55.24 g
- EPR (egg production rate) (Jingbai laying hens): 82.2%
- ADFI (average daily feed intake) [1]: 1827 g/d * each pig
- ADG (average daily gain) [1]: 723 g/d * each pig
- FCR (feed conversion ratio) [1]: 2.665
- (FCR) (grass carps; 150 ppm in basal feed, 8 weeks): 1.81
- Average final weight (grass carps; 150 ppm in basal feed, 8 weeks): 733 g
- change in vivo at 150 ppm, 150 µg/mL (grass carps; 150 ppm in basal feed, 8 weeks): 77.6%
- ADG (average daily gain) [2]: 15.15 g/d * each broiler
- ADFI (average daily feed intake) [2]: 31.06 g/d * each broiler
- FCR (feed conversion ratio) [2]: 2.05

Structure (SMILES): Cc1ccc(C(=O)NCCCC(=O)O)cc1 [N-p-methylbenzoyl-γ-aminobutyric acid]
- ADFI (average daily feed intake) (Jingbai laying hens): 159 g/day
- EW (egg weight) (Jingbai laying hens): 54.81 g
- EPR (egg production rate) (Jingbai laying hens): 84.4%
- ADFI (average daily feed intake) [1]: 1769 g/d * each pig
- ADG (average daily gain) [1]: 672 g/d * each pig
- FCR (feed conversion ratio) [1]: 2.631
- (FCR) (grass carps; 150 ppm in basal feed, 8 weeks): 1.74
- Average final weight (grass carps; 150 ppm in basal feed, 8 weeks): 739 g
- change in vivo at 150 ppm, 150 µg/mL (grass carps; 150 ppm in basal feed, 8 weeks): 82.1%
- ADG (average daily gain) [2]: 13.84 g/d * each broiler
- ADFI (average daily feed intake) [2]: 27.13 g/d * each broiler
- FCR (feed conversion ratio) [2]: 1.96

Structure (SMILES): Nc1ccc(C(=O)NCCCC(=O)O)cc1 [N-p-aminobenzoyl-γ-aminobutyric acid]
- ADFI (average daily feed intake) (Jingbai laying hens): 161 g/day
- EW (egg weight) (Jingbai laying hens): 55.31 g
- EPR (egg production rate) (Jingbai laying hens): 82.6%
- ADFI (average daily feed intake) [1]: 1643 g/d * each pig
- ADG (average daily gain) [1]: 632 g/d * each pig
- FCR (feed conversion ratio) [1]: 2.601
- (FCR) (grass carps; 150 ppm in basal feed, 8 weeks): 1.84
- Average final weight (grass carps; 150 ppm in basal feed, 8 weeks): 713 g
- change in vivo at 150 ppm, 150 µg/mL (grass carps; 150 ppm in basal feed, 8 weeks): 79.2%
- ADG (average daily gain) [2]: 12.42 g/d * each broiler
- ADFI (average daily feed intake) [2]: 25.84 g/d * each broiler
- FCR (feed conversion ratio) [2]: 2.08
